Laboratory results reported in article PMC7217877, “N-AS-triggered SPMs are direct regulators of microglia in a model of Alzheimer’s disease” (Nature Communications, 2020).
Values joined by “and” are separate entries in the source; they are usually repeats but may differ in a detail not shown here. Identical values can stand only once.

How the values were obtained:
APP/PS1 mice = assay: Caspase-3+ cells, apoptosis (Supplementary Fig 7o); type: in vivo, mouse
Experimental: Thioflavin S (Sigma-Aldrich) staining was carried out according to previously described procedures. We used 6E10 (mouse, 1:100, Signet, SIG39300), anti-20G10 (mouse, 1:1000, provided by D. R. Howlett, GlaxoSmithKline, Harlow, Essex, UK) for Aβ42, anti-G30 (rabbit, 1:1000, provided by D. R. Howlett) for Aβ40, SMA (mouse, 1:400, Sigma-Aldrich, A2547), AT8 (mouse, 1:500, Thermo Fisher Scientific, MN1020), Caspase-3 (mouse, 1:200, Novus Biologicals, NB100-56708), ac-S565 (rabbit, 1:100), COX2 (mouse, 1:250, Thermo Fisher Scientific, 35-8200), Iba1 (rabbit, 1:500, Wako, 019-19941 and goat, Abcam, ab5076), NeuN (mouse, 1:500, Millipore, MAB177), GFAP (rabbit, 1:500, Dako, N1506 and chicken, 1:500, Abcam, ab4674), and Lamp1 (mouse, 1:200, Abcam, ab24170). The sections were analyzed with a laser-scanning confocal microscope (FV3000; Olympus) or with a BX51 microscope (Olympus). MetaMorph software (Molecular Devices) was used to quantification. Three-dimensional reconstruction of microglia was recorded and analyzed using IMARIS software (Bitplane)[11]. For the analysis of age-dependent microglial COX2^+ CX3CR1^+ cells in WT and APP/PS1 mice, COX2 (rabbit, 1:100, Abcam, ab15191) and CX3CR1 (mouse, 1:100, BioLegend, 149008) antibody were used and the images were acquired on Alexa 488 and APC Channel with performed using Operetta CLS and Analysis Software 4.5 (Perkin-Elmer). […]

microglia = assay: acetyl-CoA level in primary cells (assay kit); type: cell-based, C57BL/6 mice; settings: Ab 10mM, replicates
Experimental: To confirm the generation and roles of N-AS in neurons, cells from E18 C57BL/6 mice were prepared as previously described. Cortices were dissected and then dissociated followed by incubation in papain (Worthington) at 37 °C for 15 min. Neurons were plated on poly-L-lysine-coated coverslips with neuronal culture medium, serum-free Neurobasal medium (Gibco) containing 2% B27 supplements (Gibco), 1 mM Glutamax supplement (Gibco), and 100 U ml^−1 streptomycin/ 100 U ml^−1 penicillin (Gibco) at 37 °C in a humidified atmosphere of 5% CO2. Aβ 1–42 (10 μM, 24 h, Invitrogen, 03112) was exposed to neurons and the cells were analyzed for the generation and roles of N-AS. Primary astrocyte cultures were prepared from C57BL/6 mice as described previously. In brief, after removal of the meninges, postnatal day 7 (P7) mouse brain tissues were minced and incubated in a rocking water bath at 37 °C for 30 min in the presence of 0.25% trypsin-EDTA (Sigma-Aldrich). Enzyme-digested dissociated cells were triturated with astrocyte-specific medium (DMEM/F12 containing 10% FBS and 1% penicillin-streptomycin) and centrifuged at 155×g for 8 min. […] The human microglia treated with Aβ 1–42 and/or zileuton was incubated with N-AS (2.5 μM, 2 h, Sigma-Aldrich, 01912), and were analyzed for the generation and roles of N-AS. […]

Molecule	Caspase-3+ cells (APP/PS1 mice; APP/PS1 + N-AS, sFig 7o)	apoptosis (Caspase-3+ cells) (APP/PS1 mice; N-AS vs vehicle APP/PS1)	acetyl-CoA (Fig 3e) (microglia)
CCCCCCCCCCCCC/C=C/[C@@H](O)[C@H](CO)NC(C)=O [N-AS, N-((2S,3R,E)-1,3-Dihydroxyoctadec-4-en-2-yl)acetamide]	0.7653 and 0.8763 and 0.6283 and 0.6646 and 0.8616 and 0.8325	apoptosis was not changed	–
Ab: Aβ 1–42 (Invitrogen, 03112) used to induce an AD environment in cells	–	–	0.5557 and 0.2327 and 0.5301 and 0.5514 and 0.536 and 0.6185
